Patent US20090048304A1, “Crystal Form of Besipirdine Chlorhydrate, Process Preparation and Use Thereof” (UROGENE, priority 2006, published 2009)
Like-named read-outs stand apart in the source and are kept apart here.

Legend:
[1] = for Stability of the crystal form in maturation studies (summary in words): all tested conditions: 25, 50, 80 °C, 8 or 72 hours, n-butyl-acetate; for Form(s) identified after maturation: maturation time 8 hours, 100 mg suspension in 2 ml n-butyl-acetate
Experimental: 100 mg suspensions of the different polymorphic forms, separated or in mixtures, in 2 ml of n-butyl-acetate, were left for maturation during 8 or 72 hours at different temperatures.

[2] = storage conditions at room temperature, use and storing conditions of the powder
[3] = test system: bladder contractions induced by bladder irritation; conditions: in vivo, in rats; according to WO02/064126; cited from earlier work

## CCCN(c1ccncc1)n1ccc2ccccc21.Cl [Form I, N-propyl-N-(4-pyridinyl)-1H-indol-1-amine chlorhydrate]
[1]
  Stability of the crystal form in maturation studies (summary in words): stable
[1]; listed as form I
  Stability of the crystal form in maturation studies (summary in words): thermodynamically the most stable of the three crystal forms
[2]
  Change of the polymorphic form with time on storage: does not evolve with time
[2]; listed as Polymorphic form I of besipirdine.HCl
  Change of the polymorphic form with time on storage: thermodynamically the most stable of all characterized forms

## CCCN(c1ccncc1)n1ccc2ccccc21.Cl [Form II, N-propyl-N-(4-pyridinyl)-1H-indol-1-amine chlorhydrate]
[1]
  Stability of the crystal form in maturation studies (summary in words): appears to be a stable form

## CCCN(c1ccncc1)n1ccc2ccccc21.Cl [Form III, N-propyl-N-(4-pyridinyl)-1H-indol-1-amine chlorhydrate]
[1]
  Stability of the crystal form in maturation studies (summary in words): quickly turns into form I

## CCCN(c1ccncc1F)n1cc(C)c2ccccc21 [HP184, N-(3-fluoro-4-pyridinyl)-N-propyl-3-methyl-1H-indol-1-amine]
[3]
  Frequency of bladder contractions induced by bladder irritation: slightly decrease the frequency of bladder contractions

## CCCN(c1ccncc1)n1ccc2ccccc21.Cl [I + II, N-propyl-N-(4-pyridinyl)-1H-indol-1-amine chlorhydrate]
[1]; 25 °C
  Form(s) identified after maturation: I + II
[1]; 50 °C
  Form(s) identified after maturation: I + II
[1]; 80 °C
  Form(s) identified after maturation: I + II
[1]; listed as mixture of forms I and II
  Stability of the crystal form in maturation studies (summary in words): changes towards form I
